This note sets out measurements from patent US10716797B2, “Steroid alkaloids and compositions and kits thereof” (priority 2013, dated 2020).

In one data set the test system is MRSA USA100. Briefly: MIC by microdilution, alone or in combination, MRSA USA100. The class given is cell-based, Staphylococcus aureus. To be noted: agent used alone. On the procedure:
(§1) Method. The minimal inhibitory concentrations (MICs), (i.e. lowest concentration of an antimicrobial that will inhibit the visible growth of a microorganism after incubation), of test compounds were determined against the normal or SCV strains of bacterial species from the Firmicutes phylum. Briefly, MICs were determined using the microdilution method in 96-well plates (Clinical and Laboratory Standards Institute (CLSI), 2011). Bacteria were inoculated at ˜10^5-10^6 CFU/mL and incubated at 35° C. for 20 h (normal strains) or 48 h (SCVs) in brain heart infusion (BHI) broth in order to allow SCVs to reach maximal growth as previously described (Mitchell et al., 2012). Then OD595 nm was read on a microplate reader. […] In this example the range of compound concentrations tested was 0.03 to 64 μg/ml using doubling increments. Strain Staphylococcus aureus NewbouldΔhemB (hemB) was also used in the experiments and is a laboratory-derived stable SCV created by the insertion of the macrolide resistance gene ermA in the hemB gene of this strain to create the SCV phenotype (defective electron transport chain and respiratory deficiency) through inactivation of hemin biosynthesis (Brouillette et al., 2004).
(§2) In the present Example the range of compound concentrations tested, using doubling increments, was 0.03 to 64 μg/ml for Compound 14 and up to 1024 μg/ml for gentamicin (GEN), kanamycin (KAN) and cefalexin (CEF) when these compounds were used alone. Compound 14 (Cpd 14) was used at a fixed concentration of 4 μg/ml when added to other antibiotics. The combination of CEF and KAN was used in a 3:2 ratio and doubling increments were used to test the antibacterial activity against MRSA in the absence or presence of Compound 14.
A general note: Dilution methods test growth across graded concentrations, often in twofold steps.

The test system of a further data set is MRSA USA300. The data set can be described thus: MIC by microdilution, alone or in combination, MRSA USA300. Type of data set: cell-based, Staphylococcus aureus. To be noted: agent used alone. The method, then: as §1, §2
Data set [1] deals with Listeria monocytogenes ATCC 13932 SCVs. The data set can be described thus: Time-kill experiments, Listeria monocytogenes SCV. To be noted: 8 μg/mL; 8 h and 24 h; hydrochloride. Type of data set: cell-based. The method, then:
Time-kill experiments were performed in order to determine whether the effect of test compounds on SCVs of bacterial species of the Firmicutes phylum is bacteriostatic (prevents growth) or bactericidal (kills cells).
Listeria monocytogenes ATCC 13932 SCVs were produced by plating a large inoculum (˜10^5 bacterial cells) on brain heart infusion agar (BHIA) plates containing various amounts of gentamicin in order to create a selective pressure for the generation of electron transport-deficient bacteria with the SCV phenotype, which are known to be less susceptible to aminoglycoside antibiotics (e.g., gentamicin). Indeed, aminoglycosides require the proton-motive force in order to penetrate the bacterium (Bryan and Kwan, 1981). As expected, SCV isolates were collected from such selective plates and were then passaged on drug-free medium to assess stability of the SCV phenotype. SCV isolates keeping the SCV phenotype after several passages on drug-free medium were then used for experiments described below.
One of the L. monocytogenes SCV described above was used in time-kill experiments as described in Example 22. […] At some time-points during growth at 35° C. (225 RPM), bacteria were sampled, serially diluted and plated on BHIA for colony-forming unit (CFU) determinations (i.e., viable bacterial counts). Plates were incubated for 48 h at 35° C. […]

Data set [2] has as its system S. aureus SCV strain CF07-S in polarized Calu-3 epithelial cells. Briefly: Intracellular replication of SCV in Calu-3 cell infection assay. The settings on record: 2 and 4 μg/ml; 48 h post-internalization; vs DMSO-treated cells; hydrochloride. The class given is cell-based, Staphylococcus aureus. The method, then: Human airway epithelial cells, the Calu-3 cell line ATCC HTB 55, were used in this cell culture assay. Cells were cultured in Eagle's Minimum Essential Medium (EMEM) supplemented with 0.1 mM MEM nonessential amino acids, 1 mM of sodium pyruvate, 100 U/ml penicillin, 0.1 mg/ml streptomycin, 2.5 μg/ml of Fungizone and 10% fetal bovine serum (FBS) at 37° C. in 5% CO2. For routine culture, 4 μg/ml of puromycin was added to culture media. All cell culture reagents were purchased from Wisent (St-Bruno, QC, Canada). Cell infection assays were performed as previously described (Mitchell et al., 2011). Cells were seeded at 2.5×10^5 cells/inserts on 12-well Transwell™ plates and cultured for 9 to 10 days in an air:liquid system. The complete medium in the basal compartment was replaced by the invasion medium (1% FBS and no antibiotics) 18 h before assays. Inocula were prepared by suspending bacteria grown 20 h on BHIA plates in ice-cold PBS. Bacteria (the S. aureus SCV strain CF07-S; Mitchell et al., 2011) were then washed three times in ice-cold PBS and suspended in the invasion medium supplemented with 0.5% BSA at a density of approximately 4×10^8 CFU/ml. […] Fresh invasion medium supplemented with lysostaphin was also added 1 h before cell lysis to ensure that only intracellular bacteria were counted. […]

Entries after “also recorded” stand apart in the source; their conditions may differ.

As a reminder, the MIC is the lowest concentration found to suppress growth. For the substance “3-(N-aminoethyl)-aminotomatidine hydrochloride [Compound 14]”, the “solubility in DMSO” value came out at 26 mg/mL. In the data set with MRSA USA100, the minimum inhibitory concentration (MIC) is 16 mg/L. In addition, the MIC with MRSA USA300 is 16 mg/L. Moreover, the “bactericidal effect on L. monocytogenes SCV (CFU)” value in data set [1] was “efficiently kills; also recorded: superior bactericidal activity”. Besides, the “intracellular SCVs in Calu-3 cells (CFU)” value in data set [2] is “can significantly decrease the infection; also recorded: significantly less SCVs”.
